Source: ChEMBL document CHEMBL5126604, “Design, Synthesis, and Biological Evaluation of Pyrrole-2-carboxamide Derivatives as Mycobacterial Membrane Protein Large 3 Inhibitors for Treating Drug-Resistant Tuberculosis” (J Med Chem, 2022)
In brackets after ≈: the same amount, converted by molar mass.

Experiments:
in vitro = conditions: monkey, Vero cells
Description: Selectivity index, ratio of IC50 for African green monkey vero cells to MIC for Mycobacterium tuberculosis H37Rv

Vero = assay: Cytotoxicity against African green monkey vero cells assessed as reduction in cell viability measured after 48 hrs by MTT assay; assay type: functional, cell-based; conditions: Chlorocebus sabaeus
[1] = system: Mycobacterium tuberculosis; assay: microbe, parasite or virus in culture; conditions: H37Rv, 168 h
Description: Antimycobacterial activity against Mycobacterium tuberculosis H37Rv assessed as inhibition of bacterial growth measured after 7 days by microplate alamar blue assay

[2] = system: Mycobacterium tuberculosis; assay: Antimycobacterial activity against Mycobacterium tuberculosis mc2 6206 assessed as decrease in trehalose dimycolate measured after 16 hrs using [14C]acetate by TLC analysis; assay type: functional, organism-based; conditions: DDE = dose-dependent effect
[3] = Metabolic stability in mouse liver microsomes at 0.5 uM measured after 15 to 120 mins in absence of NADPH by LC-MS/MS analysis; assay type: ADME, Microsome; conditions: time 15-120 min
[4] = Metabolic stability in mouse liver microsomes at 0.5 uM measured after 15 to 120 mins in presence of NADPH by LC-MS/MS analysis; assay type: ADME, Microsome; conditions: time 15-120 min
[5] = system: Mycolicibacterium smegmatis; assay: Antimycobacterial activity against Mycobacterium smegmatis harboring MsmgdeltammpL3/pMVGHI-mmpL3tb G253E mutant assessed as reduction in bacterial growth measured after 16 hrs […]; assay type: functional
[6] = system: Mycolicibacterium smegmatis; assay: Antimycobacterial activity against Mycobacterium smegmatis harboring MsmgdeltammpL3/pMVGHI-mmpL3tb mutant assessed as reduction in bacterial growth measured after 16 hrs […]; assay type: functional
[7] = system: Mycobacterium tuberculosis; assay: microbe, parasite or virus in culture; conditions: H37Rv mc2 6206, 16 h
Description: Antimycobacterial activity against Mycobacterium tuberculosis H37Rv mc2 6206 assessed as reduction in bacterial growth measured after 16 hrs by TLC analysis

[8] = target: Voltage-gated inwardly rectifying potassium channel KCNH2 (Homo sapiens, UniProt Q12809)
Description: Inhibition of hERG potassium channel in HEK293 cells at 0.3 to 30 uM by whole-cell patch clamp assay

[9] = system: Mycobacterium tuberculosis; assay: Antimycobacterial activity against Mycobacterium tuberculosis mc2 6206 assessed as decrease in mycolic acid transfer to cell wall arabinogalactan measured after 16 hrs using [14C]acetate by TLC analysis; assay type: functional, organism-based; conditions: dose 0.0625-1 µg/ml, DDE = dose-dependent effect
[10] = system: Mycobacterium tuberculosis; assay type: functional, H37Rv; conditions: dose 100 mg/kg; route po; time 3-30 day

Sequence of Voltage-gated inwardly rectifying potassium channel KCNH2 (Q12809 whole entry): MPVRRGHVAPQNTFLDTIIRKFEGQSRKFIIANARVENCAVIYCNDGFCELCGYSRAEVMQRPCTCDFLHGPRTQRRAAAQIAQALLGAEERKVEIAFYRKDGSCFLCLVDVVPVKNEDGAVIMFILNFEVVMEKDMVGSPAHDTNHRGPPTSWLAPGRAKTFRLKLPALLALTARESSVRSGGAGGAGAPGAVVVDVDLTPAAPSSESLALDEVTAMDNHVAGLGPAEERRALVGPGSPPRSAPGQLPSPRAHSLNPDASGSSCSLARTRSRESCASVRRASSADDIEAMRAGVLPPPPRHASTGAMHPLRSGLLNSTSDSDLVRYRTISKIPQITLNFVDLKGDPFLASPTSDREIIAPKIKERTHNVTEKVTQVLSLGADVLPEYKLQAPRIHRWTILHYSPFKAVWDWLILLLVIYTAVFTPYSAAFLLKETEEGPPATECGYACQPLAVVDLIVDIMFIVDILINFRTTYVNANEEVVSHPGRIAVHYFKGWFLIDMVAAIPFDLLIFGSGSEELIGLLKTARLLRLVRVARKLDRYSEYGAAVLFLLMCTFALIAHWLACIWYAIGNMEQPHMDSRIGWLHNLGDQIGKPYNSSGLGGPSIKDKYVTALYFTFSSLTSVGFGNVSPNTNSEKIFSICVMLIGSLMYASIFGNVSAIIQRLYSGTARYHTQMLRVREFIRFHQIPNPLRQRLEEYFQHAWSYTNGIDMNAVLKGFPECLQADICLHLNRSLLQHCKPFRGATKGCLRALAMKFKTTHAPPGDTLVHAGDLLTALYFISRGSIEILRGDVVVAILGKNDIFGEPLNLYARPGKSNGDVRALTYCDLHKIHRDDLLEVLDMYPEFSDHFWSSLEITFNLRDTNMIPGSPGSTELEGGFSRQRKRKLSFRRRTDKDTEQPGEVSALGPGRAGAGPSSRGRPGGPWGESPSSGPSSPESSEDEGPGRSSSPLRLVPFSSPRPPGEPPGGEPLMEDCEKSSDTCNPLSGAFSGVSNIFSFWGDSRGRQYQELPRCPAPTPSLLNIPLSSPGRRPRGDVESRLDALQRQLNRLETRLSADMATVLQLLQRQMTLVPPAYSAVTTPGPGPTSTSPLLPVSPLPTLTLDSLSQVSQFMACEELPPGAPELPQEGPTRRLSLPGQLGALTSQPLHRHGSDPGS

Nc1ncc(F)cc1-c1c[nH]c(C(=O)NC2C3CC4CC(C3)CC2C4)c1 (stereo not drawn)
selectivity ratio (in vitro): 77
IC50 (Vero): 33.9 mg/L (≈ 95.6 µM)
MIC90 [1]: 0.44 mg/L (≈ 1.24 µM)

O=C(NC1C2CC3CC(C2)CC1C3)c1cc(-c2ccc(O)cc2F)c[nH]1 (stereo not drawn)
MIC90 [1]: > 32 mg/L

O=C(NC1C2CC3CC(C2)CC1C3)c1cc(-c2ccc(F)nc2F)c[nH]1 (stereo not drawn)
inhibition [2]: Dde
Stability [3]: Stable
Stability [4]: 43.3%
MIC=>90 [5]: 4 mg/L (≈ 11.2 µM)
MIC90 [1]: < 0.016 mg/L
MIC90 [6]: 0.5 mg/L (≈ 1.4 µM)
MIC90 [7]: 0.125 mg/L (≈ 0.35 µM)
IC50 [8]: > 30 µM
inhibition [9]: Dde
Activity [10]: 2 log10CFU

Cc1ccc(-c2c[nH]c(C(=O)NC3C4CC5CC(C4)CC3C5)c2)cn1 (stereo not drawn)
MIC90 [1]: 1 mg/L (≈ 2.98 µM)

Cc1ccc(-c2c[nH]c(C(=O)NC3C4CC5CC(C4)CC3C5)c2)c(C)c1 (stereo not drawn)
MIC90 [1]: 0.97 mg/L (≈ 2.78 µM)

O=C(NC1C2CC3CC(C2)CC1C3)c1cc(-c2cccnc2F)c[nH]1 (stereo not drawn)
Stability [3]: Stable
IC50 (Vero): > 64 mg/L
Stability [4]: 0%
MIC90 [1]: 0.06 mg/L (≈ 0.177 µM)

O=C(NC1C2CC3CC(C2)CC1C3)c1cc(-c2ccccc2F)c[nH]1 (stereo not drawn)
selectivity ratio (in vitro): 1320
Stability [3]: Stable
IC50 (Vero): 12.6 mg/L (≈ 37.2 µM)
Stability [4]: 0%
MIC90 [1]: < 0.016 mg/L

Cn1cc(-c2ccc(Cl)cc2Cl)cc1C(=O)NC1C2CC3CC(C2)CC1C3 (stereo not drawn)
MIC90 [1]: 3.7 mg/L (≈ 9.17 µM)

COc1ccc(-c2c[nH]c(C(=O)NC3C4CC5CC(C4)CC3C5)c2)c(OC)c1 (stereo not drawn)
IC50 (Vero): > 64 mg/L
MIC90 [1]: 0.24 mg/L (≈ 0.631 µM)

COc1cc(F)ccc1-c1c[nH]c(C(=O)NC23CC4CC(CC(C4)C2)C3)c1
Stability [3]: Stable
Stability [4]: 23.3%
MIC90 [1]: < 0.016 mg/L

COc1ccc(-c2c[nH]c(C(=O)NC3C4CC5CC(C4)CC3C5)c2)c(F)c1 (stereo not drawn)
IC50 (Vero): > 64 mg/L
MIC90 [1]: 0.47 mg/L (≈ 1.28 µM)

O=C(c1cc(-c2ccc(Cl)cc2Cl)c[nH]1)N1CCOCC1
MIC90 [1]: 14.7 mg/L (≈ 45.2 µM)

O=C(NC1C2CC3CC(C2)CC1C3)c1cc(-c2ccc(F)nc2)c[nH]1 (stereo not drawn)
selectivity ratio (in vitro): 391
MIC90 [1]: 0.09 mg/L (≈ 0.265 µM)

O=C(NC1C2CC3CC(C2)CC1C3)c1cc(-c2ccc(Cl)nc2)c[nH]1 (stereo not drawn)
IC50 (Vero): > 64 mg/L
MIC90 [1]: 0.24 mg/L (≈ 0.674 µM)

O=C(NC1CCCCCCC1)c1cc(-c2ccc(F)nc2F)c[nH]1
inhibition [2]: Dde
Stability [3]: Stable
Stability [4]: 25.9%
MIC=>90 [5]: 4 mg/L (≈ 12 µM)
MIC90 [1]: 0.03 mg/L (≈ 0.09 µM)
MIC90 [6]: 0.5 mg/L (≈ 1.5 µM)
MIC90 [7]: 0.25 mg/L (≈ 0.75 µM)
inhibition [9]: Dde

COc1cc(F)ccc1-c1c[nH]c(C(=O)NC2CCCCCCC2)c1
Stability [3]: Stable
Stability [4]: 9.03%
MIC90 [1]: < 0.016 mg/L

O=C(NC1CCCCCCC1)c1cc(-c2ccc(Cl)cc2Cl)c[nH]1
MIC90 [1]: 0.23 mg/L (≈ 0.63 µM)

O=C(NC1C2CC3CC(C2)CC1C3)c1cc(-c2ccc(Cl)cc2Cl)c[nH]1 (stereo not drawn)
inhibition [2]: Dde
MIC=>90 [5]: >4 mg/L
MIC90 [1]: 0.06 mg/L (≈ 0.154 µM)
MIC90 [6]: 1 mg/L (≈ 2.57 µM)
MIC90 [7]: 0.25 mg/L (≈ 0.642 µM)
inhibition [9]: Dde

COc1ncc(F)cc1-c1c[nH]c(C(=O)NC2C3CC4CC(C3)CC2C4)c1 (stereo not drawn)
Stability [3]: Stable
IC50 (Vero): > 64 mg/L
Stability [4]: 1.97%
MIC90 [1]: 0.016 mg/L (≈ 0.0433 µM)

CC1(C)CCC(NC(=O)c2cc(-c3ccc(Cl)cc3Cl)c[nH]2)CC1
MIC90 [1]: 0.5 mg/L (≈ 1.37 µM)

O=C(NC1C2CC3CC(C2)CC1C3)c1cc(-c2ccccc2Cl)c[nH]1 (stereo not drawn)
IC50 (Vero): > 64 mg/L
MIC90 [1]: 0.24 mg/L (≈ 0.676 µM)

CCCNC(=O)c1cc(-c2ccc(Cl)cc2Cl)c[nH]1
MIC90 [1]: 12.5 mg/L (≈ 42.1 µM)

O=C(NC12CC3CC(CC(C3)C1)C2)c1cc(-c2ccncc2F)c[nH]1
MIC90 [1]: 0.06 mg/L (≈ 0.177 µM)

O=C(NC12CC3CC(CC(C3)C1)C2)c1cc(-c2ccncc2Cl)c[nH]1
Stability [3]: Stable
Stability [4]: 42.7%
MIC90 [1]: 0.03 mg/L (≈ 0.0843 µM)

O=C(NC1C2CC3CC(C2)CC1C3)c1cc(-c2ccncc2Cl)c[nH]1 (stereo not drawn)
selectivity ratio (in vitro): 3670
Stability [3]: Stable
IC50 (Vero): 58.7 mg/L (≈ 165 µM)
Stability [4]: 73.4%
MIC90 [1]: < 0.016 mg/L

O=C(NC1C2CC3CC(C2)CC1C3)c1cc(-c2ccncc2F)c[nH]1 (stereo not drawn)
selectivity ratio (in vitro): 415
MIC90 [1]: 0.11 mg/L (≈ 0.324 µM)

O=C(NC1CCCCCCC1)c1cc(-c2ccncc2Cl)c[nH]1
MIC90 [1]: 0.05 mg/L (≈ 0.151 µM)

O=C(NC1CCCCCCC1)c1cc(-c2ccc(F)cc2)c[nH]1
MIC90 [1]: 0.03 mg/L (≈ 0.0954 µM)

CN1CCN(C(=O)c2cc(-c3ccc(Cl)cc3Cl)c[nH]2)CC1
MIC90 [1]: 27.4 mg/L (≈ 81 µM)

COc1ccc(-c2c[nH]c(C(=O)NC3C4CC5CC(C4)CC3C5)c2)cn1 (stereo not drawn)
selectivity ratio (in vitro): 137
MIC90 [1]: 0.25 mg/L (≈ 0.711 µM)

O=C(NC1C2CC3CC(C2)CC1C3)c1cc(-c2ccccn2)c[nH]1 (stereo not drawn)
selectivity ratio (in vitro): 394
IC50 (Vero): 47.3 mg/L (≈ 147 µM)
MIC90 [1]: 0.12 mg/L (≈ 0.373 µM)
